Experimental data: PubChem BioAssay (NCI)
Several values for one entry are separate records, joined by “and”; a condition that tells them apart may be missing. Identical values can stand only once.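 Tested at 5 concentrations; 48 h exposure; 96-well plates; endpoints linearly interpolated, else capped at highest concentration. The concentration for 50% growth inhibition is given as GI50. TGI marks complete inhibition of growth.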

Each compound was assayed on UO-31 renal (assay: DTP human tumour cell line panel, 48 h).

Structure (SMILES)	GI50 [µM]	TGI [µM]
Cc1cc(C2CCCCC2)n(O)c(=O)c1	0.552	> 100
COC(=O)C(=O)C(C(=O)C=C(C)C)C(=O)C(=O)Nc1ccc(Cl)cc1C (centres undefined)		> 100
CC(=O)[O][Hg][c]1c(C)c(C)c(C)c(C)c1C	3.45	7.74
COc1cc(C(=O)O[C@H](C(N)=O)[C@]2(C)CO2)c2ccccc2c1	33.7	> 100
Cc1cccc(C(C)(C)C)c1NC(=O)CCc1n[nH]c(=S)o1		> 100
CN(C)C(=S)SN(C)C(=O)Nc1ccccc1		> 94.7
Cc1ccc(C(=O)/C=C/c2ccccc2O)c(C)c1		> 100
O=S(O)CCCCSSCCCCSSCCCCS(=O)O		> 100
COc1cc2c(/C=C3/C(=O)Nc4cccc(Cl)c43)c(Cl)n(Cc3ccccc3)c2cc1C	5.69	> 100
Cc1[nH]c(N=Nc2ccccc2)nc1N=Nc1ccccc1	1.34	13
COc1ccc(-c2cc3c(nn2)-c2ccccc2C3=O)cc1	> 100	> 100
CC(=O)SCCC1c2[nH]c3ccccc3c2CCN1O (centres undefined)		> 100
COc1ccc(S(=O)(=O)N(Cc2ccc3c(n2)C=CC(C)(C)O3)C2CCC2)cc1OC	< 0.01	0.871
O=C1C2=C(CC3C(C2)C3(Br)Br)C(=O)C2=C1CC1C(C2)C1(Br)Br (centres undefined)		> 100
COc1ccc(C2CC(=O)c3c(O)c(OC)c(OC)c(OC)c3O2)c(O)c1 (centres undefined)	1.09	21.4
CC(=O)c1ccc(NC(=O)/C(Cc2ccccn2)=N/NC(=O)C[N+](C)(C)C)cc1		> 100
O=C(CCCSc1nc(-c2ccc(Cl)cc2)cc(-c2ccc(Cl)cc2)n1)NO	0.32	2.35

Each compound was assayed on COLO 205 colon (assay: DTP human tumour cell line panel, 48 h).

Structure (SMILES)	GI50 [µM]	TGI [µM]
Cc1cc(C2CCCCC2)n(O)c(=O)c1	4.46	> 100
COC(=O)C(=O)C(C(=O)C=C(C)C)C(=O)C(=O)Nc1ccc(Cl)cc1C (centres undefined)		> 100
CC(=O)[O][Hg][c]1c(C)c(C)c(C)c(C)c1C	2.7	7.14
COc1cc(C(=O)O[C@H](C(N)=O)[C@]2(C)CO2)c2ccccc2c1	16.6	39.7
Cc1cccc(C(C)(C)C)c1NC(=O)CCc1n[nH]c(=S)o1		47.6
CN(C)C(=S)SN(C)C(=O)Nc1ccccc1		> 100
Cc1ccc(C(=O)/C=C/c2ccccc2O)c(C)c1		> 100
O=S(O)CCCCSSCCCCSSCCCCS(=O)O		83.6
COc1cc2c(/C=C3/C(=O)Nc4cccc(Cl)c43)c(Cl)n(Cc3ccccc3)c2cc1C	2.94	21.8
Cc1[nH]c(N=Nc2ccccc2)nc1N=Nc1ccccc1	2.96	13.1
COc1ccc(-c2cc3c(nn2)-c2ccccc2C3=O)cc1	> 100	> 100
CC(=O)SCCC1c2[nH]c3ccccc3c2CCN1O (centres undefined)		> 100
COc1ccc(S(=O)(=O)N(Cc2ccc3c(n2)C=CC(C)(C)O3)C2CCC2)cc1OC	< 0.01	0.0537
O=C1C2=C(CC3C(C2)C3(Br)Br)C(=O)C2=C1CC1C(C2)C1(Br)Br (centres undefined)		> 100
COc1ccc(C2CC(=O)c3c(O)c(OC)c(OC)c(OC)c3O2)c(O)c1 (centres undefined)	4.43	18
CC(=O)c1ccc(NC(=O)/C(Cc2ccccn2)=N/NC(=O)C[N+](C)(C)C)cc1		> 100
O=C(CCCSc1nc(-c2ccc(Cl)cc2)cc(-c2ccc(Cl)cc2)n1)NO	2.06	6.21

What follows are compounds tested on NCI-H522 lung (assay: DTP human tumour cell line panel, 48 h).

Structure (SMILES)	GI50 [µM]	TGI
Cc1cc(C2CCCCC2)n(O)c(=O)c1	4.8	49.9 µM and 35.2 µM
COC(=O)C(=O)C(C(=O)C=C(C)C)C(=O)C(=O)Nc1ccc(Cl)cc1C (centres undefined)		> 100 µM
CC(=O)[O][Hg][c]1c(C)c(C)c(C)c(C)c1C	1.41	3.02 µM
COc1cc(C(=O)O[C@H](C(N)=O)[C@]2(C)CO2)c2ccccc2c1	33.2	> 100 µM
Cc1cccc(C(C)(C)C)c1NC(=O)CCc1n[nH]c(=S)o1		> 100 µM
CN(C)C(=S)SN(C)C(=O)Nc1ccccc1		3.5 µM
Cc1ccc(C(=O)/C=C/c2ccccc2O)c(C)c1		> 100 µM
O=S(O)CCCCSSCCCCSSCCCCS(=O)O		35.6 µM
COc1cc2c(/C=C3/C(=O)Nc4cccc(Cl)c43)c(Cl)n(Cc3ccccc3)c2cc1C	4.46	> 82.2 µM
Cc1[nH]c(N=Nc2ccccc2)nc1N=Nc1ccccc1	2.69	> 34.5 µM
COc1ccc(-c2cc3c(nn2)-c2ccccc2C3=O)cc1	> 100	> 100 µM
CC(=O)SCCC1c2[nH]c3ccccc3c2CCN1O (centres undefined)		> 100 µM
COc1ccc(S(=O)(=O)N(Cc2ccc3c(n2)C=CC(C)(C)O3)C2CCC2)cc1OC	< 0.01	0.0768 µM
O=C1C2=C(CC3C(C2)C3(Br)Br)C(=O)C2=C1CC1C(C2)C1(Br)Br (centres undefined)		> 100 µM
COc1ccc(C2CC(=O)c3c(O)c(OC)c(OC)c(OC)c3O2)c(O)c1 (centres undefined)	0.0326	0.188 µM
CC(=O)c1ccc(NC(=O)/C(Cc2ccccn2)=N/NC(=O)C[N+](C)(C)C)cc1		> 100 µM
O=C(CCCSc1nc(-c2ccc(Cl)cc2)cc(-c2ccc(Cl)cc2)n1)NO	1.27	8.11 µM

These compounds were tested on HL-60(TB) leukemia (assay: DTP human tumour cell line panel, 48 h).

Structure (SMILES)	TGI [µM]	GI50 [µM]
Cc1cc(C2CCCCC2)n(O)c(=O)c1	10.1	
COC(=O)C(=O)C(C(=O)C=C(C)C)C(=O)C(=O)Nc1ccc(Cl)cc1C (centres undefined)	> 100	
CC(=O)[O][Hg][c]1c(C)c(C)c(C)c(C)c1C	4.75	1.91
COc1cc(C(=O)O[C@H](C(N)=O)[C@]2(C)CO2)c2ccccc2c1	> 100	40.9
Cc1cccc(C(C)(C)C)c1NC(=O)CCc1n[nH]c(=S)o1	> 100	
CN(C)C(=S)SN(C)C(=O)Nc1ccccc1	> 71.7	
Cc1ccc(C(=O)/C=C/c2ccccc2O)c(C)c1	> 100	
O=S(O)CCCCSSCCCCSSCCCCS(=O)O	30.6	
COc1cc2c(/C=C3/C(=O)Nc4cccc(Cl)c43)c(Cl)n(Cc3ccccc3)c2cc1C	> 100	5.22
Cc1[nH]c(N=Nc2ccccc2)nc1N=Nc1ccccc1	> 23.6	2.56
COc1ccc(-c2cc3c(nn2)-c2ccccc2C3=O)cc1	> 100	> 100
CC(=O)SCCC1c2[nH]c3ccccc3c2CCN1O (centres undefined)	> 100	
COc1ccc(S(=O)(=O)N(Cc2ccc3c(n2)C=CC(C)(C)O3)C2CCC2)cc1OC	0.0249	< 0.01
O=C1C2=C(CC3C(C2)C3(Br)Br)C(=O)C2=C1CC1C(C2)C1(Br)Br (centres undefined)	> 100	
COc1ccc(C2CC(=O)c3c(O)c(OC)c(OC)c(OC)c3O2)c(O)c1 (centres undefined)	0.632	0.0459
CC(=O)c1ccc(NC(=O)/C(Cc2ccccn2)=N/NC(=O)C[N+](C)(C)C)cc1	> 100	
O=C(CCCSc1nc(-c2ccc(Cl)cc2)cc(-c2ccc(Cl)cc2)n1)NO	8	1.61

These compounds were tested on A549 NSCLC (assay: DTP human tumour cell line panel, 48 h).

Structure (SMILES)	GI50 [µM]	TGI [µM]
Cc1cc(C2CCCCC2)n(O)c(=O)c1	1.34	> 100
COC(=O)C(=O)C(C(=O)C=C(C)C)C(=O)C(=O)Nc1ccc(Cl)cc1C (centres undefined)		> 100
CC(=O)[O][Hg][c]1c(C)c(C)c(C)c(C)c1C	10.7	27.8
COc1cc(C(=O)O[C@H](C(N)=O)[C@]2(C)CO2)c2ccccc2c1	15.4	73
Cc1cccc(C(C)(C)C)c1NC(=O)CCc1n[nH]c(=S)o1		> 100
CN(C)C(=S)SN(C)C(=O)Nc1ccccc1		> 100
Cc1ccc(C(=O)/C=C/c2ccccc2O)c(C)c1		> 100
O=S(O)CCCCSSCCCCSSCCCCS(=O)O		> 100
COc1cc2c(/C=C3/C(=O)Nc4cccc(Cl)c43)c(Cl)n(Cc3ccccc3)c2cc1C	4.76	> 100
Cc1[nH]c(N=Nc2ccccc2)nc1N=Nc1ccccc1	2.86	12
COc1ccc(-c2cc3c(nn2)-c2ccccc2C3=O)cc1	> 100	> 100
CC(=O)SCCC1c2[nH]c3ccccc3c2CCN1O (centres undefined)		> 100
COc1ccc(S(=O)(=O)N(Cc2ccc3c(n2)C=CC(C)(C)O3)C2CCC2)cc1OC	0.0233	1.66
O=C1C2=C(CC3C(C2)C3(Br)Br)C(=O)C2=C1CC1C(C2)C1(Br)Br (centres undefined)		> 100
COc1ccc(C2CC(=O)c3c(O)c(OC)c(OC)c(OC)c3O2)c(O)c1 (centres undefined)	0.41	28.8
CC(=O)c1ccc(NC(=O)/C(Cc2ccccn2)=N/NC(=O)C[N+](C)(C)C)cc1		> 100
O=C(CCCSc1nc(-c2ccc(Cl)cc2)cc(-c2ccc(Cl)cc2)n1)NO	1.59	12.4
